Laboratory results reported in paper PMC5471521, “Novel selective β1-adrenoceptor antagonists for concomitant cardiovascular and respiratory disease” (The FASEB Journal, 2017).
Like-named read-outs stand apart in the source and are kept apart here.

Key:
[1] = Aqueous solubility by nephelometry; assay type: physicochemical; settings: kinetic from dmso stock
Description: NDD-713.HCl and -825.HCl were added to either aqueous phosphate buffer (pH 6.5) or 0.01 M aqueous HCl (pH ∼2) at final DMSO concentrations of 1%. Samples were analyzed by nephelometry to determine solubility ranges ([48]). Studies were carried out by the Centre for Drug Candidate Optimisation (CDCO; Monash University, Melbourne, VIC, Australia).

[2] = Protein binding by ultracentrifugation, human liver microsomes; assay type: in vitro ADME; settings: pH 7.4, 0.4 mg/ml protein, read-out: fu human liver microsomes
Description: Protein binding of 1 µM NDD-713.HCl and -825.HCl in human and rat plasma, as well as human liver microsomes, was assessed by using the ultracentrifugation technique. Frozen human plasma (Australian Red Cross Blood Service, Melbourne, VIC, Australia) and rat plasma (male Sprague-Dawley rats; Charles River, Margate, Kent, United Kingdom) were thawed at 37°C. Human liver microsomes (XenoTech) were suspended in 0.1 M phosphate buffer (pH 7.4) at protein concentrations of 0.4 mg/ml. Samples were collected immediately as stability reference controls. Spiked plasma samples (but not microsome samples) were incubated at 37°C for 1 h. […] NDD-713.HCl and -825.HCl concentrations of noncentrifuged matrix and protein-free supernatant were determined by UPLC-MS relative to calibration standards prepared in the respective matrices. Total concentration (Ctotal) was the average measured concentration in […] samples maintained at 37°C, and unbound concentration (Cunbound) was the average measured concentration in protein-free supernatants from centrifuged samples (n = 3). The compound unbound fraction (fu) was calculated: fu = Cunbound/Ctotal. Compound degradation was assessed by comparing concentrations in noncentrifuged plasma samples that were incubated at 37°C with concentrations measured in the t = 0 noncentrifuged samples. […]

[3] = target: T1, human β3-AR (Homo sapiens, UniProt P13945); assay: Antagonism of cimaterol-induced 3H-cAMP accumulation in CHO-β3 cells; assay type: cell-based; settings: cimaterol agonist, mean ± SEM, read-out: Log Kd,β3 (converted)
T1 construct: expressed in transfected cells
Description: Confluent cells were examined (24-well plates, 5 h incubation at 37°C) as described in Baker ([45]). Antagonist Kd values were calculated from a rightward shift of the agonist concentration response curve by using the Gaddum equation as previously described ([46]).

[4] = test system: Salmonella typhimurium strains TA98, TA100, TA1535, and TA1537; settings: concentrations of ≤10 μM, with or without rat liver S9
Description: Ames fluctuation assays were performed by using Salmonella typhimurium strains TA98, TA100, TA1535, and TA1537 to detect frame-shifts and base substitutions that led to missense mutations in liquid culture in 384-well plates. Bacterial plates were incubated with serially diluted NDD-713 and -825 solutions for 96 h, and bacterial growth was measured spectrophotometrically by using a pH color-change indicator in response to bacterial growth acidification. Assays were conducted with or without metabolic activation via addition of rat liver S9 fraction. Bacteriocidal or bacteriostatic effects were assessed by using a bacterial cytotoxicity assay that was conducted in parallel with Ames fluctuation assays. Reference compounds were 2-aminoanthracene, 9-aminoacridine, quercetin, streptozotocin (genotoxicity), and mitomycin C (bacterial cytotoxicity). Study was carried out by Cerep (Celle L’Evescault, France).

[5] = target: human albumin (Homo sapiens, UniProt P02768); assay: Plasma protein binding estimated from retention on human albumin columns; assay type: in vitro ADME; settings: human albumin chromatography column, chromatographic estimate, read-out: Plasma protein binding PPB (converted)
[6] = PK analysis in male Sprague-Dawley rats; assay type: in vivo; settings: rat; for AUC(0-t) / half-life / clearance / Vd / Cmax / Tmax / bioavailability: male, Sprague-Dawley; for AUC(0-t) / half-life / clearance / Vd / Cmax / Tmax / AUC0-t/dose: hydrochloride salt forms; for half-life: read-out: t1/2, app (converted); for Vd: read-out: Vss; for Unbound plasma level at Cmax below β2-AR Kd / Likely duration of β1-AR blockade: 20 mg/kg p.o.; for Likely duration of β1-AR blockade: judged from PK profile vs Kd
Description: Blood samples were centrifuged, supernatant plasma was removed, and plasma concentrations of compounds were determined by LC-MS. […] Studies were carried out by CDCO.

[7] = target: T2, human β1-AR (Homo sapiens, UniProt P08588); assay: 3H-CGP12177 whole-cell binding in CHO-β1 cells; settings: for Kd: CHO-β1 cells, mean ± SEM, read-out: Human β1-AR Log Kd (converted); for SI1a (in vitro binding) = Kd,β2/Kd,β1: Kd values from 3H-CGP12177 whole-cell binding, Table 1
T2 construct: expressed in transfected cells

[8] = test system: HepG2 cells; assay: HepG2 cytotoxicity (CellTiter-Glo); assay type: cell-based, human; settings: 24 h, even at the limits of aqueous solubility
Description: Human hepatocyte carcinoma cells (HepG2; European Collection of Cell Cultures, Salisbury, United Kingdom) were grown in accordance with their guidelines by using DMEM. Cells at a density of 30,000 cells/well in 96-well plates were incubated overnight (37°C, 5% CO2 atmosphere). Medium was then removed and replaced with DMEM that contained control or compounds (1, 10, and 100 μM; n = 2 per concentration) for 24 h before addition of 100 μl/well of CellTiter-Glo Reagent (Promega, Madison, WI, USA) for ATP measurement and shaken to induce cell lysis. Luminescence was quantified on an AnalystAD plate-reader (Molecular Devices, Sunnyvale, CA, USA). Thioridizine (known HepG2 cytotoxicity) was used as positive control. Study was carried out by BioFocus DPI (Saffron Walden, United Kingdom).

[9] = 0.01 M aqueous HCl, simulated gastric fluid, pH 2.0, hydrochloride salts used, read-out: Aqueous solubility Saq at pH 2.0
[10] = aqueous phosphate buffer, aqueous buffer, pH 6.5, hydrochloride salts used, read-out: Aqueous solubility Saq at pH 6.5
[11] = plasma, iv, i.v. 2 mg/kg, mean ± SD n = 3
[12] = plasma, iv, i.v. 2 mg/kg, read-out: Plasma CLtotal
[13] = plasma, iv, i.v. 6 mg/kg, mean ± SD n = 3
[14] = plasma, iv, i.v. 6 mg/kg, read-out: Plasma CLtotal
[15] = plasma, iv, i.v. 20 mg/kg, mean ± SD n = 3
[16] = plasma, iv, i.v. 20 mg/kg, read-out: Plasma CLtotal
[17] = whole blood, iv, i.v. 2 mg/kg, read-out: Blood CLtotal
[18] = whole blood, iv, i.v. 6 mg/kg, read-out: Blood CLtotal
[19] = whole blood, iv, i.v. 20 mg/kg, read-out: Blood CLtotal

T2 sequence (P08588 whole entry): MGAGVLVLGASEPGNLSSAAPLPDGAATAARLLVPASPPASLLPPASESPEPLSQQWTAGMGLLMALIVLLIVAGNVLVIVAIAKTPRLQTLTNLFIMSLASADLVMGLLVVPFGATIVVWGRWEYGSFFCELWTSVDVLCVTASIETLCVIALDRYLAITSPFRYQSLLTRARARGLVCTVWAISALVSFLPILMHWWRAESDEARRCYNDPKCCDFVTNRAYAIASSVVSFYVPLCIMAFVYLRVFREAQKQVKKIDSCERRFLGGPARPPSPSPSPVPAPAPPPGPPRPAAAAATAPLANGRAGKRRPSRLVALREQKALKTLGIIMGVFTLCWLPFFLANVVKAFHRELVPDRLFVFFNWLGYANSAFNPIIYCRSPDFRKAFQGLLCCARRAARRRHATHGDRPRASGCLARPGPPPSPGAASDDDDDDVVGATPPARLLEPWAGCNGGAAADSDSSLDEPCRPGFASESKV
T1 sequence (P13945 whole entry): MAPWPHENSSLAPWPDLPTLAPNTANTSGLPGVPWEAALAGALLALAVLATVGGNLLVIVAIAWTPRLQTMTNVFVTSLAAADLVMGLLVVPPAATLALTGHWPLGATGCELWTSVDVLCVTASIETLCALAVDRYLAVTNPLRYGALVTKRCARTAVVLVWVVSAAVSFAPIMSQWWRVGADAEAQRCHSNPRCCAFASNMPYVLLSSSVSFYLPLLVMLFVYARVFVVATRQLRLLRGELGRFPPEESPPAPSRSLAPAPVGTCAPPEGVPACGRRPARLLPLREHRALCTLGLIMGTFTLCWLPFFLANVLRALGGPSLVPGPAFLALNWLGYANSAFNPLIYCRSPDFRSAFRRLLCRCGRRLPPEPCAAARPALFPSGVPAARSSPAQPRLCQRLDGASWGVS
human albumin, sequence (P02768 25-609): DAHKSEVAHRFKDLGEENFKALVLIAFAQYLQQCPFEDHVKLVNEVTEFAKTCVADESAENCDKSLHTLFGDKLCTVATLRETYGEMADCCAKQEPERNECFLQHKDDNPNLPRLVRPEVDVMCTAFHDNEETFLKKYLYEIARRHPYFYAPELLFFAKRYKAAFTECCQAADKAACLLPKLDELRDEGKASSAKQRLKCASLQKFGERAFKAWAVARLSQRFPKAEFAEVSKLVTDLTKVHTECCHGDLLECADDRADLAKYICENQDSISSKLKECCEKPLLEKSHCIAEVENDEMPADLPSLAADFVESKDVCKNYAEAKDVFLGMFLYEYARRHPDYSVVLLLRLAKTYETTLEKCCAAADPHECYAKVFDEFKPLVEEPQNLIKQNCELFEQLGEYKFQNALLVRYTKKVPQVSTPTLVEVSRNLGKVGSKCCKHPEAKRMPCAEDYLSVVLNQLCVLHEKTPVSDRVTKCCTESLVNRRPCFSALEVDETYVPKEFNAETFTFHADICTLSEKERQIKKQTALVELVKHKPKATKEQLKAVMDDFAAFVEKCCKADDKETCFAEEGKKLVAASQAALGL

For `O=C1NCc2cc(OCCNC[C@H](O)COc3ccc4c(c3)OC[C@@H](COCC3CC3)O4)ccc21` [NDD-825], the solubility [1, 9] was > 100 µg/mL, the solubility [1, 10] was 50 to 100 µg/mL and the fraction unbound at 4.2 h, 1 µM [2] was 0.63. The Kd [3] was 1910 nM, the “Genotoxicity in Ames tests” value [4] was “Neither compound displayed genotoxicity” and the fraction unbound [5] was 0.265. For the same compound, the AUC(0-t) ([6]; plasma, iv, i.v. 2 mg/kg) was 1.4 µM·h, the half-life [6, 11] was 5.3 ± 0.3 h and the clearance [6, 12] was 54 ± 2 mL/min/kg. For the same compound, the Vd ([6]; plasma, iv, i.v. 2 mg/kg) was 6 ± 0.5 L/kg, the AUC(0-t) ([6]; plasma, iv, i.v. 6 mg/kg) was 3.8 ± 0.2 µM·h and the half-life [6, 13] was 7.3 ± 0.1 h. The clearance [6, 14] was 59 ± 1 mL/min/kg, the Vd ([6]; plasma, iv, i.v. 6 mg/kg) was 5 L/kg and the AUC(0-t) ([6]; plasma, iv, i.v. 20 mg/kg) was 12.1 ± 0.3 µM·h. It also gave a half-life [6, 15] of 7.1 ± 1.3 h, a clearance [6, 16] of 55 ± 1 mL/min/kg and a Vd ([6]; plasma, iv, i.v. 20 mg/kg) of 4.7 L/kg. It also gave an AUC(0-t) ([6]; plasma, po, p.o. 2 mg/kg) of 0.4 ± 0.1 µM·h, a Cmax ([6]; plasma, po, p.o. 2 mg/kg) of 100 nM and a Tmax ([6]; plasma, po, p.o. 2 mg/kg) of 1.38 h. The half-life ([6]; plasma, po, p.o. 2 mg/kg) was 9.8 ± 0.2 h, the AUC(0-t) ([6]; plasma, po, p.o. 10 mg/kg) was 3 ± 0.4 µM·h and the Cmax ([6]; plasma, po, p.o. 10 mg/kg) was 800 ± 100 nM. The Tmax ([6]; plasma, po, p.o. 10 mg/kg) was 0.75 h, the half-life ([6]; plasma, po, p.o. 10 mg/kg) was 4.6 ± 0.1 h and the AUC(0-t) ([6]; plasma, po, p.o. 20 mg/kg) was 11.9 ± 3 µM·h. It also gave a Cmax ([6]; plasma, po, p.o. 20 mg/kg) of 1400 ± 300 nM, a Tmax ([6]; plasma, po, p.o. 20 mg/kg) of 3.1 h and a half-life ([6]; plasma, po, p.o. 20 mg/kg) of 3.3 ± 0.2 h. For the same compound, the bioavailability ([6]; plasma, po, 2 mg/kg) was 32 ± 5%, the bioavailability ([6]; plasma, po, 10 mg/kg) was 45 ± 6% and the bioavailability ([6]; plasma, po, 20 mg/kg) was 89 ± 24%. The clearance [6, 17] was 39 ± 1 mL/min/kg, the clearance [6, 18] was 42 ± 1 mL/min/kg and the clearance [6, 19] was 39 ± 1 mL/min/kg. The “Unbound plasma level at Cmax below β2-AR Kd” value [6] was “at least 5 fold”, the “Likely duration of β1-AR blockade” value [6] was > 24 h and the AUC0-t/dose ([6]; i.v. 2 mg/kg) was 0.6 ± 0 μM ⋅ h/(mg/kg). The AUC0-t/dose ([6]; i.v. 6 mg/kg) was 0.6 ± 0 μM ⋅ h/(mg/kg), the AUC0-t/dose ([6]; i.v. 20 mg/kg) was 0.6 ± 0 μM ⋅ h/(mg/kg) and the AUC0-t/dose ([6]; p.o. 2 mg/kg) was 0.2 ± 0 μM ⋅ h/(mg/kg). The AUC0-t/dose ([6]; p.o. 10 mg/kg) was 0.3 ± 0.1 μM ⋅ h/(mg/kg), the AUC0-t/dose ([6]; p.o. 20 mg/kg) was 0.5 ± 0.2 μM ⋅ h/(mg/kg) and the Kd [7] was 5.25 nM. The “SI1a (in vitro binding) = Kd,β2/Kd,β1” value [7] was 1023 and the “Cytotoxic effects in HepG2 cell viability assay” value [8] was “no cytotoxic effects”.
For `NC(=O)c1ccc(OCCNC[C@H](O)COc2ccc3c(c2)OC[C@@H](COCC2CC2)O3)cc1` [NDD-713], the solubility [1, 9] was > 100 µg/mL, the solubility [1, 10] was 25 to 50 µg/mL and the fraction unbound at 4.2 h, 1 µM [2] was 0.67. The Kd [3] was 3390 nM, the “Genotoxicity in Ames tests” value [4] was “Neither compound displayed genotoxicity” and the fraction unbound [5] was 0.365. It also gave an AUC(0-t) ([6]; plasma, iv, i.v. 2 mg/kg) of 1.2 ± 0.1 µM·h, a half-life [6, 11] of 1.7 ± 0.2 h and a clearance [6, 12] of 62 ± 4 mL/min/kg. The Vd ([6]; plasma, iv, i.v. 2 mg/kg) was 4.3 ± 0.4 L/kg, the AUC(0-t) ([6]; plasma, iv, i.v. 6 mg/kg) was 4.6 ± 0.3 µM·h and the half-life [6, 13] was 1.6 ± 0.1 h. For the same compound, the clearance [6, 14] was 43 ± 1 mL/min/kg, the Vd ([6]; plasma, iv, i.v. 6 mg/kg) was 3.6 ± 0.2 L/kg and the AUC(0-t) ([6]; plasma, iv, i.v. 20 mg/kg) was 14.7 ± 1 µM·h. It also gave a half-life [6, 15] of 2 h, a clearance [6, 16] of 51 ± 2 mL/min/kg and a Vd ([6]; plasma, iv, i.v. 20 mg/kg) of 4.2 ± 0.2 L/kg. The AUC(0-t) ([6]; plasma, po, p.o. 2 mg/kg) was 0.6 ± 0.2 µM·h, the Cmax ([6]; plasma, po, p.o. 2 mg/kg) was 200 ± 100 nM and the Tmax ([6]; plasma, po, p.o. 2 mg/kg) was 0.5 h. For the same compound, the AUC(0-t) ([6]; plasma, po, p.o. 10 mg/kg) was 5.1 ± 0.2 µM·h, the Cmax ([6]; plasma, po, p.o. 10 mg/kg) was 2100 ± 600 nM and the Tmax ([6]; plasma, po, p.o. 10 mg/kg) was 0.75 h. For the same compound, the half-life ([6]; plasma, po, p.o. 10 mg/kg) was 1.5 h, the AUC(0-t) ([6]; plasma, po, p.o. 20 mg/kg) was 6.3 ± 0.3 µM·h and the Cmax ([6]; plasma, po, p.o. 20 mg/kg) was 2000 ± 100 nM. For the same compound, the Tmax ([6]; plasma, po, p.o. 20 mg/kg) was 0.75 h, the half-life ([6]; plasma, po, p.o. 20 mg/kg) was 2.1 h and the bioavailability ([6]; plasma, po, 2 mg/kg) was 50 ± 11%. The bioavailability ([6]; plasma, po, 10 mg/kg) was 77 ± 3%, the bioavailability ([6]; plasma, po, 20 mg/kg) was 44 ± 1% and the clearance [6, 17] was 51 ± 3 mL/min/kg. The clearance [6, 18] was 36 ± 1 mL/min/kg, the clearance [6, 19] was 42 ± 1 mL/min/kg and the “Unbound plasma level at Cmax below β2-AR Kd” value [6] was “at least 5 fold”. The “Likely duration of β1-AR blockade” value [6] was 10 h, the AUC0-t/dose ([6]; i.v. 2 mg/kg) was 0.6 ± 0.1 μM ⋅ h/(mg/kg) and the AUC0-t/dose ([6]; i.v. 6 mg/kg) was 0.8 ± 0 μM ⋅ h/(mg/kg). The AUC0-t/dose ([6]; i.v. 20 mg/kg) was 0.7 ± 0 μM ⋅ h/(mg/kg), the AUC0-t/dose ([6]; p.o. 2 mg/kg) was 0.4 ± 0.1 μM ⋅ h/(mg/kg) and the AUC0-t/dose ([6]; p.o. 10 mg/kg) was 0.5 ± 0.1 μM ⋅ h/(mg/kg). The AUC0-t/dose ([6]; p.o. 20 mg/kg) was 0.3 ± 0 μM ⋅ h/(mg/kg), the Kd [7] was 15.1 nM and the “SI1a (in vitro binding) = Kd,β2/Kd,β1” value [7] was 589. The “Human β1 vs. β2 selectivity Kd,β2/Kd,β1” value ([7]; from 3H-CGP12177 whole-cell binding) was 589 and the “Cytotoxic effects in HepG2 cell viability assay” value [8] was “no cytotoxic effects”.
